Earlier results, collected in patent publication US10525009B2, “Formulations of 6-mercaptopurine” (Hadasit Medical Research Services and Development Ltd., priority 2004, dated 2020).

SMILES: Sc1ncnc2nc[nH]c12 [6-MP, 6-mercaptopurine]
- fraction of an oral dose absorbed: Approximately 50%
